Target: T1, human DP2 receptor (Homo sapiens, UniProt Q9Y5Y4)
T1 construct: expressed in transfected cells
T1 sequence (Q9Y5Y4 1-395): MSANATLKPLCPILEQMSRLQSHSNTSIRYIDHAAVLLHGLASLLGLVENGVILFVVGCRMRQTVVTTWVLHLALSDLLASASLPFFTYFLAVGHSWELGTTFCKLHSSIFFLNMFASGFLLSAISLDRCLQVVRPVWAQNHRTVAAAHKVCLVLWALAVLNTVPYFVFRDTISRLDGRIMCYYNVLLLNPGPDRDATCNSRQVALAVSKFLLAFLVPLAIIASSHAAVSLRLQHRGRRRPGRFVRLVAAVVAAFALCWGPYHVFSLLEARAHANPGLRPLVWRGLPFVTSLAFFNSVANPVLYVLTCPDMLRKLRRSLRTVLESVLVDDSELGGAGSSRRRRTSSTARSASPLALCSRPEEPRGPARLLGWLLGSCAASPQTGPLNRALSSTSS
Experiment: DP2/CRTH2 binding assay ([3H]PGD2 radioligand)
Conditions: membranes of HEK293 cells expressing recombinant human DP2, 1 nM [3H]PGD2; read-out: hDP2
Protocol: The ability of a compound to bind to the human DP2 receptor is assessed via a radioligand binding assay using [^3H]PGD2. HEK293 cells stably expressing recombinant human DP2 are resuspended in 10 mM Hepes, 7.4 containing 1 mM DTT, lysed and centrifuged at 75,000×g to pellet the membranes. The membranes are resuspended in 10 mM Hepes, 7.4 containing 1 mM DTT and 10% glycerol to approximately 5 mg protein/ml. Membranes (2-10 μg protein/well) are incubated in 96-well plates with 1 nM [^3H]PGD2 and test compound in Assay Buffer (50 mM Hepes, 10 mM MnCl2, 1 mM EDTA, plus or minus 0.2% human serum albumin, pH 7.4) for 60 minutes at room temperature. The reactions are terminated by rapid filtration through Whatman GF/C glass fibre filter plates. The filter plates were pre-soaked in 0.33% polythylenimine for 30 minutes at room temperature then washed in Wash Buffer (50 mM Hepes, 0.5 M NaCl pH 7.4) prior to harvesting. After harvesting, the filter plates are washed 3 times with 1 ml cold Wash Buffer then dried. Scintillant is then added to the plates and the radioactivity retained on the filters is determined on a Packard TopCount (Perkin Elmer). Specific binding is determined as total radioactive binding minus non-specific binding in the presence of 10 μM PGD2. IC50s were determined using GraphPad prism analysis of drug titration curves.

Row | Structure (SMILES) | IC50
1 | COc1ccc(CC(=O)O)cc1Oc1ccc(NC(=O)c2ccc(Cl)cc2)cc1CSC(C)(C)C [Compound 8, {3-[2-tert-butylsulfanylmethyl-4-(4-chloro-benzoylamino)-phenoxy]-4-methoxy-phenyl}-acetic acid] | < 300 nM
2 | CCc1ccc(CC(=O)O)cc1Oc1ccc(NC(=O)C(C)(C)C)cc1CSCC(F)(F)F [Compound 56, {3-[4-(2,2-Dimethyl-propionylamino)-2-(2,2,2-trifluoro-ethylsulfanylmethyl)-phenoxy]-4-ethyl-phenyl}-acetic acid] | < 300 nM
3 | COc1ccc(CC(=O)O)cc1Oc1ccc(N2CCOC2=O)cc1CSCC(F)(F)F [Compound 38, {4-Methoxy-3-[4-(2-oxo-oxazolidin-3-yl)-2-(2,2,2-trifluoro-ethylsulfanylmethyl)-phenoxy}-phenyl]-acetic acid] | 300 to 1000 nM
4 | COc1ccc(CC(=O)O)cc1Oc1ccc(C(=O)NC(C)(C)C)cc1CSC(C)(C)C [Compound 39, [3-(4-tert-Butylcarbamoyl-2-tert-butylsulfanylmethyl-phenoxy)-4-methoxy-phenyl]-acetic acid] | < 300 nM
5 | COc1ccc(CC(=O)O)cc1Oc1ccc(NS(=O)(=O)c2cccc3c(N(C)C)cccc23)cc1CSC(C)(C)C [Compound 72, {3-[2-tert-butylsulfanylmethyl-4-(5-dimethylamino-naphthalene-1-sulfonylamino)-phenoxy]-4-methoxy-phenyl}-acetic acid] | 300 to 1000 nM
6 | CC(C)(C)C(=O)Nc1ccc(Oc2cc(Cl)cc(CC(=O)O)c2)c(CS(=O)(=O)C(C)(C)C)c1 [Compound 48, {3-Chloro-5-[4-(2,2-dimethyl-propionylamino)-2-(2-methyl-propane-2-sulfonylmethyl)-phenoxy]-phenyl}-acetic acid] | < 300 nM
7 | CCNC(=O)c1ccc(Oc2cc(CC(=O)O)ccc2OC)c(CSC(C)C)c1 [Compound 25, [3-(4-Ethylcarbamoyl-2-isopropylsulfanylmethyl-phenoxy)-4-methoxy-phenyl]-acetic acid] | < 300 nM
8 | CC(C)SCc1cc(NC(=O)C(C)(C)C)ccc1Oc1cc(CC(=O)O)cc(C(F)(F)F)c1 [Compound 54, {3-[4-(2,2-Dimethyl-propionylamino)-2-isopropylsulfanylmethyl-phenoxy]-5-trifluoromethyl-phenyl}-acetic acid] | < 300 nM
9 | COc1ccc(CC(=O)O)cc1Oc1ccc(NC(=O)c2ccc(Cl)cc2)cc1C[S+]([O-])C(C)C (centres unmarked) [Compound 21, {3-[4-(4-Chloro-benzoylamino)-2-(propane-2-sulfinylmethyl)-phenoxy]-4-methoxy-phenyl}-acetic acid] | < 300 nM
10 | COc1ccc(CC(=O)O)cc1Oc1ccc(NC(=O)NCc2ccccc2)cc1CSC(C)(C)C [Compound 13, {3-[4-(3-benzyl-ureido)-2-tert-butylsulfanylmethyl-phenoxy]-4-methoxy-phenyl}-acetic acid] | < 300 nM
11 | COc1ccc(NC(=O)c2ccc(Oc3cc(CC(=O)O)ccc3OC)c(CSC(C)(C)C)c2)cn1 [Compound 43, {3-[2-tert-butylsulfanylmethyl-4-(6-methoxy-pyridin-3-ylcarbamoyl)-phenoxy]-4-methoxy-phenyl}-acetic acid] | < 300 nM
12 | CC(C)(C)C(=O)Nc1ccc(Oc2cc(CC(=O)O)cc(C(F)(F)F)c2)c(CS(=O)(=O)CC(F)(F)F)c1 [Compound 33, {3-[4-(2,2-Dimethyl-propionylamino)-2-(trifluoro-ethanesulfonylmethyl)-phenoxy]-5-trifluoromethyl-phenyl}-acetic acid] | < 300 nM
13 | COc1ccc(CC(=O)O)cc1Oc1ccc(NC(=O)C2CC2)cc1CSC(C)(C)C [Compound 35, {3-[2-tert-butylsulfanylmethyl-4-(cyclopropanecarbonyl-amino)-phenoxy]-4-methoxy-phenyl}-acetic acid] | < 300 nM
14 | CC(C)(C)C(=O)Nc1ccc(Oc2cc(CC(=O)O)ccc2OC(F)F)c(CSCC(F)(F)F)c1 [Compound 49, {4-Difluoromethoxy-3-[4-(2,2-dimethyl-propionylamino)-2-(2,2,2-trifluoro-ethylsulfanylmethyl)-phenoxy]-phenyl}-acetic acid] | < 300 nM
15 | COc1ccc(CC(=O)O)cc1Oc1ccc(NC(=O)c2ccc(Cl)cc2)cc1CS(=O)(=O)c1ccccc1 [Compound 24, {3-[2-Benzenesulfonylmethyl-4-(4-chloro-benzoylamino)-phenoxy]-4-methoxy-phenyl}-acetic acid] | < 300 nM
16 | COc1ccc(CC(=O)O)cc1Oc1ccc(NC(=O)C(C)(C)C)cc1CSC(C)C [Compound 9, {3-[4-(2,2-Dimethyl-propionylamino)-2-isopropylsulfanylmethyl-phenoxy]-4-methoxy-phenyl}-acetic acid] | < 300 nM
17 | COc1ccc(CC(=O)O)cc1Oc1ccc(NC(=O)C(C)(C)C)cc1CSc1ccc(Cl)cc1 [Compound 5, {3-[2-(4-chloro-phenylsulfanylmethyl)-4-(2,2-dimethyl-propionylamino)-phenoxy]-4-methoxy-phenyl}-acetic acid] | < 300 nM
18 | COc1ccc(CC(=O)O)cc1Oc1ccc(C(=O)N(C)C(C)C)cc1CSC(C)(C)C [Compound 45, {3-[2-tert-butylsulfanylmethyl-4-(isopropyl-methyl-carbamoyl)-phenoxy]-4-methoxy-phenyl}-acetic acid] | > 1000 nM
19 | COc1ccc(CC(=O)O)cc1Oc1ccc(NC(=O)C(C)C)cc1CSC(C)(C)C [Compound 36, [3-(2-tert-Butylsulfanylmethyl-4-isobutyrylamino-phenoxy)-4-methoxy-phenyl]-acetic acid] | < 300 nM
20 | COc1ccc(CC(=O)O)cc1Oc1ccc(NC(=O)C(C)(C)C)cc1C[S+]([O-])C(C)C (centres unmarked) [Compound 11, {3-[4-(2,2-Dimethyl-propionylamino)-2-(propane-2-sulfinylmethyl)-phenoxy]-4-methoxy-phenyl}-acetic acid] | < 300 nM
21 | COc1ccc(CC(=O)O)cc1Oc1ccc(NC(=O)NCc2ccccc2)cc1CSCC(F)(F)F [Compound 3, {3-[4-(3-benzyl-ureido)-2-(2,2,2-trifluoro-ethylsulfanylmethyl)-phenoxy]-4-methoxy-phenyl}-acetic acid] | < 300 nM
22 | COc1ccc(CC(=O)O)cc1Oc1ccc(NC(=O)C(C)(C)C)cc1CS(=O)(=O)C(C)C [Compound 10, {3-[4-(2,2-Dimethyl-propionylamino)-2-(propane-2-sulfonylmethyl)-phenoxy]-4-methoxy-phenyl}-acetic acid] | < 300 nM
23 | CC(C)(C)C(=O)Nc1ccc(Oc2cc(Cl)cc(CC(=O)O)c2)c(CS(=O)(=O)CC(F)(F)F)c1 [Compound 29, {3-Chloro-5-[4-(2,2-dimethyl-propionylamino)-2-(trifluoro-ethanesulfonylmethyl)-phenoxy]-phenyl}-acetic acid] | < 300 nM
24 | COc1ccc(CC(=O)O)cc1Oc1ccc(NC(=O)c2ccc(Cl)cc2)cc1CSc1ccc(Cl)cc1 [Compound 4, {3-[4-(4-Chloro-benzoylamino)-2-(4-chloro-phenylsulfanylmethyl)-phenoxy]-4-methoxy-phenyl}-acetic acid] | < 300 nM
25 | CC(C)(C)C(=O)Nc1ccc(Oc2cc(CC(=O)O)ccc2Cl)c(CSCC(F)(F)F)c1 [Compound 53, {4-Chloro-3-[4-(2,2-dimethyl-propionylamino)-2-(2,2,2-trifluoro-ethylsulfanylmethyl)-phenoxy]-phenyl}-acetic acid] | < 300 nM
26 | COc1ccc(CC(=O)O)cc1Oc1ccc(NC(=O)C(C)C)cc1CSCC(F)(F)F [Compound 15, {3-[4-isobutyrylamino-2-(2,2,2-trifluoro-ethylsulfanylmethyl)-phenoxy]-4-methoxy-phenyl}-acetic acid] | < 300 nM
27 | COc1ccc(CC(=O)O)cc1Oc1ccc(NC(=O)c2ccc(Cl)cc2)cc1CS(=O)(=O)C(C)C [Compound 22, {3-[4-(4-Chloro-benzoylamino)-2-(propane-2-sulfonylmethyl)-phenoxy]-4-methoxy-phenyl}-acetic acid] | < 300 nM
28 | CC(C)S(=O)(=O)Cc1cc(NC(=O)C(C)(C)C)ccc1Oc1cc(Cl)cc(CC(=O)O)c1 [Compound 31, {3-Chloro-5-[4-(2,2-dimethyl-propionylamino)-2-(propane-2-sulfonylmethyl)-phenoxy]-phenyl}-acetic acid] | < 300 nM
29 | CC(C)(C)C(=O)Nc1ccc(Oc2cc(Cl)cc(CC(=O)O)c2)c(CSCC(F)(F)F)c1 [Compound 28, {3-Chloro-5-[4-(2,2-dimethyl-propionylamino)-2-(2,2,2-trifluoro-ethylsulfanylmethyl)-phenoxy]-phenyl}-acetic acid] | < 300 nM

— patent publication US20110144160A1, “Antagonists of Prostaglandin D2 Receptors” (Amira Pharmaceuticals, Inc., priority 2008, published 2011)
